Legend:
Format in all cases: in vivo
[1] = test system: Echinochloa crus-galli (ECHCG); assay: Example B post-emergence herbicidal activity; details: 312 h, rate 250 g/ha, evaluated after 13 days, read-out: Post-emergence activity ECHCG (100=total damage to plant; 0=no damage to plant)
Method: (§1) Seeds of a variety of test species were sown in standard soil in pots. After cultivation for one day (pre-emergence) or after 8 days cultivation (post-emergence) under controlled conditions in a glasshouse (at 24/16° C., day/night; 14 hours light; 65% humidity), the plants were sprayed with an aqueous spray solution derived from the formulation of the technical active ingredient in acetone/water (50:50) solution containing 0.5% Tween 20 (polyoxyethelyene sorbitan monolaurate, CAS RN 9005-64-5).
(§2) The test plants were then grown in a glasshouse under controlled conditions in a glasshouse (at 24/16° C., day/night; 14 hours light; 65% humidity) and watered twice daily. After 13 days for pre and post-emergence, the test was evaluated (100=total damage to plant; 0=no damage to plant).
(§3) Alopecurus myosuroides (ALOMY), Avena fatua (AVEFA), Setaria faberi (SETFA), Echinochloa crus-galli (ECHCG), Solanum nigrum (SOLNI) and Amaranthus retoflexus (AMARE)

Avena fatua (AVEFA) [2] = assay: Example B post-emergence herbicidal activity; details: 312 h, rate 250 g/ha, evaluated after 13 days, read-out: Post-emergence activity AVEFA (100=total damage to plant; 0=no damage to plant)
Method: as §1, §2, §3

[3] = test system: Alopecurus myosuroides (ALOMY); assay: Example B post-emergence herbicidal activity; details: 312 h, rate 250 g/ha, evaluated after 13 days, read-out: Post-emergence activity ALOMY (100=total damage to plant; 0=no damage to plant)
Method: as §1, §2, §3

[4] = test system: Amaranthus retoflexus (AMARE); assay: Example B post-emergence herbicidal activity; details: Amaranthus retroflexus, 312 h, rate 250 g/ha, evaluated after 13 days, read-out: Post-emergence activity AMARE (100=total damage to plant; 0=no damage to plant)
Method: as §1, §2, §3

Setaria faberi (SETFA) [5] = assay: Example B post-emergence herbicidal activity; details: 312 h, rate 250 g/ha, evaluated after 13 days, read-out: Post-emergence activity SETFA (100=total damage to plant; 0=no damage to plant)
Method: as §1, §2, §3

[6] = test system: Echinochloa crus-galli (ECHCG); assay: Example B pre-emergence herbicidal activity; details: 312 h, rate 250 g/ha, evaluated after 13 days, read-out: Pre-Emergence Activity ECHCG (100=total damage to plant; 0=no damage to plant)
Method: as §1, §2, §3

Avena fatua (AVEFA) [7] = assay: Example B pre-emergence herbicidal activity; details: 312 h, rate 250 g/ha, evaluated after 13 days, read-out: Pre-Emergence Activity AVEFA (100=total damage to plant; 0=no damage to plant)
Method: as §1, §2, §3

[8] = test system: Alopecurus myosuroides (ALOMY); assay: Example B pre-emergence herbicidal activity; details: 312 h, rate 250 g/ha, evaluated after 13 days, read-out: Pre-Emergence Activity ALOMY (100=total damage to plant; 0=no damage to plant)
Method: as §1, §2, §3

[9] = test system: Amaranthus retoflexus (AMARE); assay: Example B pre-emergence herbicidal activity; details: Amaranthus retroflexus, 312 h, rate 250 g/ha, evaluated after 13 days, read-out: Pre-Emergence Activity AMARE (100=total damage to plant; 0=no damage to plant)
Method: as §1, §2, §3

Setaria faberi (SETFA) [10] = assay: Example B pre-emergence herbicidal activity; details: 312 h, rate 250 g/ha, evaluated after 13 days, read-out: Pre-Emergence Activity SETFA (100=total damage to plant; 0=no damage to plant)
Method: as §1, §2, §3

With `COc1cc(F)c(-c2nc(C3C(=O)[C@@H]4CC[C@@H](C4)C3=O)c(C)s2)cc1F` (some centres unmarked) [Compound T68] the pest or weed control at 250 g/ha [1] was 100%, the pest or weed control at 250 g/ha (Avena fatua (AVEFA) [2]) was 90% and the pest or weed control at 250 g/ha [3] was 70%. For the same molecule, the pest or weed control at 250 g/ha [4] was 0%, the pest or weed control at 250 g/ha (Setaria faberi (SETFA) [5]) was 100% and the pest or weed control at 250 g/ha [6] was 0%. It also gave a pest or weed control at 250 g/ha (Avena fatua (AVEFA) [7]) of 70%, a pest or weed control at 250 g/ha [8] of 60% and a pest or weed control at 250 g/ha [9] of 0%. The pest or weed control at 250 g/ha (Setaria faberi (SETFA) [10]) was 80%.

With `Cc1sc(-c2cc(Cl)ccc2Cl)nc1C1C(=O)[C@@H]2CC[C@@H](C2)C1=O` (some centres unmarked) [Compound T73] the pest or weed control at 250 g/ha [1] was 20%, the pest or weed control at 250 g/ha (Avena fatua (AVEFA) [2]) was 0% and the pest or weed control at 250 g/ha [3] was 0%. For the same molecule, the pest or weed control at 250 g/ha [4] was 0%, the pest or weed control at 250 g/ha (Setaria faberi (SETFA) [5]) was 30% and the pest or weed control at 250 g/ha [6] was 0%. The pest or weed control at 250 g/ha (Avena fatua (AVEFA) [7]) was 50%, the pest or weed control at 250 g/ha [8] was 0% and the pest or weed control at 250 g/ha [9] was 0%. For the same molecule, the pest or weed control at 250 g/ha (Setaria faberi (SETFA) [10]) was 0%.

`Cc1sc(-c2ccc(Br)cn2)nc1C1=C(OC(=O)C2CC2)[C@@H]2CC[C@@H](C2)C1=O` [Compound P7] showed a pest or weed control at 250 g/ha [1] of 100%, a pest or weed control at 250 g/ha (Avena fatua (AVEFA) [2]) of 90% and a pest or weed control at 250 g/ha [3] of 90%. For the same molecule, the pest or weed control at 250 g/ha [4] was 0%, the pest or weed control at 250 g/ha (Setaria faberi (SETFA) [5]) was 100% and the pest or weed control at 250 g/ha [6] was 20%. It also gave a pest or weed control at 250 g/ha (Avena fatua (AVEFA) [7]) of 0%, a pest or weed control at 250 g/ha [8] of 30% and a pest or weed control at 250 g/ha [9] of 0%. It also gave a pest or weed control at 250 g/ha (Setaria faberi (SETFA) [10]) of 90%.

`CCc1sc(-c2ccc(Br)cc2F)nc1C1C(=O)[C@@H]2CC[C@@H](C2)C1=O` (some centres unmarked) [Compound T33] gave a pest or weed control at 250 g/ha [1] of 100%, a pest or weed control at 250 g/ha (Avena fatua (AVEFA) [2]) of 100% and a pest or weed control at 250 g/ha [3] of 100%. It also gave a pest or weed control at 250 g/ha [4] of 0%, a pest or weed control at 250 g/ha (Setaria faberi (SETFA) [5]) of 100% and a pest or weed control at 250 g/ha [6] of 100%. It also gave a pest or weed control at 250 g/ha (Avena fatua (AVEFA) [7]) of 50%, a pest or weed control at 250 g/ha [8] of 90% and a pest or weed control at 250 g/ha [9] of 0%. For the same molecule, the pest or weed control at 250 g/ha (Setaria faberi (SETFA) [10]) was 100%.

`Cc1sc(-c2ccc(Cl)c(C#N)c2)nc1C1C(=O)C2CCC(C2)C1=O` (centres unmarked) [Compound T74] was tested, and the pest or weed control at 250 g/ha [1] was 70%, the pest or weed control at 250 g/ha (Avena fatua (AVEFA) [2]) was 0% and the pest or weed control at 250 g/ha [3] was 50%. The pest or weed control at 250 g/ha [4] was 0%, the pest or weed control at 250 g/ha (Setaria faberi (SETFA) [5]) was 90% and the pest or weed control at 250 g/ha [6] was 20%. It also gave a pest or weed control at 250 g/ha (Avena fatua (AVEFA) [7]) of 0%, a pest or weed control at 250 g/ha [8] of 30% and a pest or weed control at 250 g/ha [9] of 100%. The pest or weed control at 250 g/ha (Setaria faberi (SETFA) [10]) was 40%.

Work on `Cc1sc(-c2ccc(OC(F)F)cc2)nc1C1C(=O)[C@@H]2CC[C@@H](C2)C1=O` (some centres unmarked) [Compound T42] yielded a pest or weed control at 250 g/ha [1] of 100%, a pest or weed control at 250 g/ha (Avena fatua (AVEFA) [2]) of 70% and a pest or weed control at 250 g/ha [3] of 100%. For the same molecule, the pest or weed control at 250 g/ha [4] was 0%, the pest or weed control at 250 g/ha (Setaria faberi (SETFA) [5]) was 100% and the pest or weed control at 250 g/ha [6] was 100%. The pest or weed control at 250 g/ha (Avena fatua (AVEFA) [7]) was 0%, the pest or weed control at 250 g/ha [8] was 100% and the pest or weed control at 250 g/ha [9] was 0%. It also gave a pest or weed control at 250 g/ha (Setaria faberi (SETFA) [10]) of 100%.

`COc1ccc(-c2nc(C3C(=O)[C@@H]4CC[C@@H](C4)C3=O)c(C)s2)cc1` (some centres unmarked) [Compound T58] showed a pest or weed control at 250 g/ha [1] of 100%, a pest or weed control at 250 g/ha (Avena fatua (AVEFA) [2]) of 80% and a pest or weed control at 250 g/ha [3] of 90%. For the same molecule, the pest or weed control at 250 g/ha [4] was 0%, the pest or weed control at 250 g/ha (Setaria faberi (SETFA) [5]) was 100% and the pest or weed control at 250 g/ha [6] was 100%. The pest or weed control at 250 g/ha (Avena fatua (AVEFA) [7]) was 60%, the pest or weed control at 250 g/ha [8] was 60% and the pest or weed control at 250 g/ha [9] was 0%. The pest or weed control at 250 g/ha (Setaria faberi (SETFA) [10]) was 60%.

For `CCOC(=O)COC1=C(c2sc(-c3ccc(Cl)cc3)nc2C)C(=O)[C@H]2CC[C@@H]1C2` [Compound P11], the pest or weed control at 250 g/ha [1] was 80%, the pest or weed control at 250 g/ha (Avena fatua (AVEFA) [2]) was 20% and the pest or weed control at 250 g/ha [3] was 20%. For the same molecule, the pest or weed control at 250 g/ha [4] was 0%, the pest or weed control at 250 g/ha (Setaria faberi (SETFA) [5]) was 80% and the pest or weed control at 250 g/ha [6] was 0%. It also gave a pest or weed control at 250 g/ha (Avena fatua (AVEFA) [7]) of 0%, a pest or weed control at 250 g/ha [8] of 0% and a pest or weed control at 250 g/ha [9] of 0%. For the same molecule, the pest or weed control at 250 g/ha (Setaria faberi (SETFA) [10]) was 80%.

From patent publication US8598365B2, “Herbicides” (Syngenta Limited, priority 2007, dated 2013)
